Measured values taken from US20120065126A1, “Pharmaceutical Compositions Containing Antifungal Peptides” (BASF SE, priority 2009, published 2012).

Experiments:
[1] = tested on: E. coli (Stratagene, BLR); assay: P18 in pharmaceutical base formulation (CFU); type: cell-based, Escherichia coli; conditions: mixed 1:9 with suspension
Protocol: The aim of the experiment was to study the effect of a pharmaceutical base formulation containing the P18 peptide ingredient (P18 sequence H-KWKLFKKIPKFLHLAKKF-NH2 (Bachem AG, Switzerland)). For this purpose, the following base formulation was used: […]
1% hydroxycellulose 10% propylene glycol made up with water.
Based on the base formulation, formulations with rising P18 concentrations (500 ppm to 10 000 ppm) were prepared from a 20% concentrate solution.
The effect of the formulations on E. coli (Stratagene, BLR) was studied.
LB growth medium (Becton, Dickinson and Company, Sparks, USA) […] make up to 1 liter, set pH 7
The growth test was effected as follows: 5 ml of LB medium were inoculated with E. coli and incubated at 37° C. and 200 rpm overnight.
1.5 ml reaction vessels were each filled with 1 ml of LB medium and inoculated with the E. coli suspension from the overnight culture such that an optical density, measured at 600 nm, of 0.1 was obtained at the start of the experiment. The resulting E. coli suspension was mixed in a ratio of 1:9 (formulation: E. coli suspension) with the formulations. 1 μl of the culture was diluted with 20 μl of LB medium after 5 minutes, 10 minutes, 20 minutes and 60 minutes, and then plated out. After incubation over 24 hours, the colonies on the plates were counted.

[2] = tested on: M. furfur; assay: Effect of P18 variants (CFU); type: cell-based, Malassezia furfur; conditions: 50 μM peptide, with DMSO; 24 h
Protocol: The studies described hereinafter were conducted on the Malassezia furfur strain DSM 6170.
The inhibitory effect of the following P18 variants on M. furfur was studied:
The growth test was effected as follows: a shake culture containing M472 Pityrosporum medium was inoculated with M. furfur and incubated with shaking at 30° C. and 200 rpm overnight.
A 96-well microtiter plate was filled with 100 μl per well of M472 Pityrosporum medium and inoculated with M. furfur suspension from the overnight culture. The M. furfur suspension was adjusted at the start of the experiment to an optical density, measured at 600 nm, of 0.1.
The peptide variants were dissolved with a final concentration of 1 mM in dimethyl sulfoxide (DMSO). It is also possible to dispense with DMSO and to use a purely aqueous peptide solution. 5 μl of this solution were added to 100 μl of M. furfur suspension (final concentration of the P18 peptide 50 μM). In a control mixture, the same amount of DMSO without P18 peptide was added.
The microtiter plate was incubated with shaking at 30°.
After 24 h, the colony forming units (CFU) were determined by streaking 10 μl of each of the suspensions and, after incubation over the course of 6 days, counting the colonies. Two independent experiments each with three identical mixtures were conducted, and the number of colony forming units was averaged.

[3] = tested on: M. furfur DSM 6170; assay: Comparison of the efficacy of P18 and AFPP in a shampoo formulation (CFU); type: cell-based, Malassezia furfur; conditions: 1:10 with culture medium
Protocol: In order to study the efficacy of AFPP compared to P18 (SEQ ID NO. 3; sequence: KWKLFKKIPKFLHLAKKF-NH2 (Bachem AG, Switzerland)) in a shampoo formulation, the experiment described in Example 24 was repeated with a shampoo formulation.
Both peptides were present as 2% (w/w) solutions in phosphate buffer (10 mM sodium phosphate, pH 7.5, 100 mM NaCl).
Peptide solution with a final concentration of 0.1% and 0.2% was added to the shampoo formulation. The resulting formulations were stirred over 16 hours in order to obtain homogeneous solutions. The same procedure was repeated with equivalent volumes of the phosphate buffer in order to rule out any influence of the phosphate buffer on the test results.
The growth test was effected as follows: a shake culture containing M472 Pityrosporum medium was inoculated with M. furfur DSM 6170 (DSMZ) and incubated with shaking at 30° C. and 200 rpm overnight.
For each test mixture, a 1.5 ml reaction vessel was filled with Pityrosporum medium and inoculated with the M. furfur overnight culture to give a start OD of 0.1, measured at 600 nm.
The growth of the following test mixtures was monitored: • M. furfur suspension and addition of phosphate buffer in shampoo formulation in an equivalent amount to the volumes which were added with peptide-shampoo solution (in order to rule out any influence of the phosphate buffer on the effect of the active peptides at concentrations in the shampoo formulation of 0.1% or 0.2%) • M. furfur suspension and shampoo formulation with a P18 concentration of 0.1% • M. furfur suspension and shampoo formulation with a P18 concentration of 0.2% • M. furfur suspension and shampoo formulation with an AFPP concentration of 0.1% • M. furfur suspension and shampoo formulation with a final AFPP concentration of 0.2%
The ratio of the shampoo formulation to the M. furfur culture medium was 1:10 in all test mixtures (shampoo formulation: M. furfur culture medium). The reaction volume was 1 ml.
The growth of M. furfur in the test mixtures was observed over a period of 20 minutes. For this purpose, the mixtures were diluted in M472 medium in a ratio of 1:10 after 10 minutes and 20 minutes, and then 10 μl were plated out. The CFU (colony forming units) were determined by counting after incubation at 30° C. for 6 days.
The experiments were effected in double determination and were independently repeated at least once.

“H-KWKLFKKIPKFLHLAKKF-NH2 [P18, H-KWKLFKKIPKFLHLAKKF-NH2]” was tested, and the “Colony forming units after the incubation time specified” value ([1]; 10 000 ppm in the formulation, 5 minutes) was 1778 ± 314 CFU, the “Colony forming units after the incubation time specified” value ([1]; 10 000 ppm in the formulation, 10 minutes) was 901 ± 120 CFU and the “Colony forming units after the incubation time specified” value ([1]; 10 000 ppm in the formulation, 20 minutes) was 226 ± 286 CFU. For the same substance, the “Colony forming units after the incubation time specified” value ([1]; 10 000 ppm in the formulation, 60 minutes) was 7.75 ± 9.5 CFU, the “Colony forming units after the incubation time specified” value ([1]; 500 ppm in the formulation, 5 minutes) was 2000 ± 0 CFU and the “Colony forming units after the incubation time specified” value ([1]; 500 ppm in the formulation, 10 minutes) was 2000 ± 0 CFU. For the same substance, the “Colony forming units after the incubation time specified” value ([1]; 500 ppm in the formulation, 20 minutes) was 2000 ± 0 CFU, the “Colony forming units after the incubation time specified” value ([1]; 500 ppm in the formulation, 60 minutes) was 709 ± 451 CFU and the “Colony forming units after the incubation time specified” value ([1]; 1000 ppm in the formulation, 5 minutes) was 2000 ± 0 CFU. The “Colony forming units after the incubation time specified” value ([1]; 1000 ppm in the formulation, 10 minutes) was 2000 ± 0 CFU, the “Colony forming units after the incubation time specified” value ([1]; 1000 ppm in the formulation, 20 minutes) was 1619 ± 534 CFU and the “Colony forming units after the incubation time specified” value ([1]; 1000 ppm in the formulation, 60 minutes) was 332 ± 236 CFU. For the same substance, the “Colony forming units after the incubation time specified” value ([1]; 2000 ppm in the formulation, 5 minutes) was 2000 ± 0 CFU, the “Colony forming units after the incubation time specified” value ([1]; 2000 ppm in the formulation, 10 minutes) was 2000 ± 0 CFU and the “Colony forming units after the incubation time specified” value ([1]; 2000 ppm in the formulation, 20 minutes) was 733 ± 349 CFU. For the same substance, the “Colony forming units after the incubation time specified” value ([1]; 2000 ppm in the formulation, 60 minutes) was 93 ± 127 CFU, the “Colony forming units after the incubation time specified” value ([1]; 5000 ppm in the formulation, 5 minutes) was 2000 ± 0 CFU and the “Colony forming units after the incubation time specified” value ([1]; 5000 ppm in the formulation, 10 minutes) was 1225 ± 339 CFU. The “Colony forming units after the incubation time specified” value ([1]; 5000 ppm in the formulation, 20 minutes) was 411 ± 516 CFU, the “Colony forming units after the incubation time specified” value ([1]; 5000 ppm in the formulation, 60 minutes) was 29 ± 36 CFU and the “Averaged number of colony forming units (CFU)” value [2] was 0 CFU. For the same substance, the “Colony forming units after the incubation time specified” value ([3]; 0.1% in the shampoo formulation, 10 minutes) was 80 ± 10 CFU, the “Colony forming units after the incubation time specified” value ([3]; 0.1% in the shampoo formulation, 20 minutes) was 38 ± 21 CFU and the “Colony forming units after the incubation time specified” value ([3]; 0.2% in the shampoo formulation, 10 minutes) was 21 ± 17 CFU. For the same substance, the “Colony forming units after the incubation time specified” value ([3]; 0.2% in the shampoo formulation, 20 minutes) was 3 ± 1 CFU.
